Results: US20230049952A1, “METHODS AND COMPOUNDS FOR RESTORING MUTANT P53 FUNCTION” (PMV Pharmaceuticals, Inc., priority 2020, published 2023)

System: p53 signaling pathway in MT373 tumors
Experiment: MT373 syngeneic sarcoma model: mouse p53 signaling pathway profiling panel
Assay type: in vivo

## CCn1c(C#CCNc2ccccc2)cc2cc(CNC3CCN(C)CC3)ccc21 [Compound 1, 1-Anilino-3-{1-ethyl-5-[(1-methyl-4-piperidylamino)methyl]-1H-indol-2-yl}-2-propyne]
75 mg/kg BIDx1, 24 h
  Casp2 fold increase or percent reduction vs vehicle control: 16.13 fold or %
  Ccnb1 fold increase or percent reduction vs vehicle control: 65.51 fold or %
  Ccne1 fold increase or percent reduction vs vehicle control: 29.87 fold or %
  Ccng1 fold increase or percent reduction vs vehicle control: 4.63 fold or %
  Ccnh fold increase or percent reduction vs vehicle control: 3.31 fold or %
  Cdc25a fold increase or percent reduction vs vehicle control: 34.15 fold or %
  Cdk1 fold increase or percent reduction vs vehicle control: 59.92 fold or %
  Cdk4 fold increase or percent reduction vs vehicle control: 40.50 fold or %
  Cdkn1a fold increase or percent reduction vs vehicle control: 5.16 fold or %
  Cdkn2a fold increase or percent reduction vs vehicle control: 16.83 fold or %
  Chek1 fold increase or percent reduction vs vehicle control: 52.36 fold or %
  Cradd fold increase or percent reduction vs vehicle control: 5.90 fold or %
  Cul9 fold increase or percent reduction vs vehicle control: 1.58 fold or %
  Dapk1 fold increase or percent reduction vs vehicle control: 1.19 fold or %
  Dnmt1 fold increase or percent reduction vs vehicle control: 17.60 fold or %
  E2f1 fold increase or percent reduction vs vehicle control: 10.67 fold or %
  E2f3 fold increase or percent reduction vs vehicle control: 27.77 fold or %
  Egfr fold increase or percent reduction vs vehicle control: 28.18 fold or %
  Egr1 fold increase or percent reduction vs vehicle control: 64.73 fold or %
  Ep300 fold increase or percent reduction vs vehicle control: 3.09 fold or %
  Ercc1 fold increase or percent reduction vs vehicle control: 18.66 fold or %
  Esr1 fold increase or percent reduction vs vehicle control: 1.26 fold or %
  Fadd fold increase or percent reduction vs vehicle control: 5.60 fold or %
  Fas fold increase or percent reduction vs vehicle control: 1.45 fold or %
  Fasl fold increase or percent reduction vs vehicle control: 10.36 fold or %
  Foxo3 fold increase or percent reduction vs vehicle control: 3.58 fold or %
  Gadd45a fold increase or percent reduction vs vehicle control: 19.41 fold or %
  Hif1a fold increase or percent reduction vs vehicle control: 13.43 fold or %
  Il6 fold increase or percent reduction vs vehicle control: 70.78 fold or %
  Jun fold increase or percent reduction vs vehicle control: 38.98 fold or %
  Kras fold increase or percent reduction vs vehicle control: 13.87 fold or %
  Lig4 fold increase or percent reduction vs vehicle control: 1.17. fold or %
  Mdm2 fold increase or percent reduction vs vehicle control: 2.76 fold or %
  Mdm4 fold increase or percent reduction vs vehicle control: 1.07 fold or %
  Mel1 fold increase or percent reduction vs vehicle control: 15.14 fold or %
  Mlh1 fold increase or percent reduction vs vehicle control: 9.12 fold or %
  Msh2 fold increase or percent reduction vs vehicle control: 29.40 fold or %
  Myod1 fold increase or percent reduction vs vehicle control: 3.54 fold or %
  Nf1 fold increase or percent reduction vs vehicle control: 16.46 fold or %
  Nfkb1 fold increase or percent reduction vs vehicle control: 15.21 fold or %
  Pcna fold increase or percent reduction vs vehicle control: 43.21 fold or %
  Pmaip1 fold increase or percent reduction vs vehicle control: 3.81 fold or %
  Ppm1d fold increase or percent reduction vs vehicle control: 1.26 fold or %
  Prc1 fold increase or percent reduction vs vehicle control: 26.03 fold or %
  Prkca fold increase or percent reduction vs vehicle control: 16.45 fold or %
  Pten fold increase or percent reduction vs vehicle control: 1.18 fold or %
  Pttg1 fold increase or percent reduction vs vehicle control: 1.07 fold or %
  Rb1 fold increase or percent reduction vs vehicle control: 1.14 fold or %
  Rela fold increase or percent reduction vs vehicle control: 32.18 fold or %
  Rprm fold increase or percent reduction vs vehicle control: 1.77 fold or %
  Serpinb5 fold increase or percent reduction vs vehicle control: 1.20 fold or %
  Sesn2 fold increase or percent reduction vs vehicle control: 2.05 fold or %
  Sfn fold increase or percent reduction vs vehicle control: 15.25 fold or %
  Sirt1 fold increase or percent reduction vs vehicle control: 6.13 fold or %
  Stat1 fold increase or percent reduction vs vehicle control: 1.08 fold or %
  Tnf fold increase or percent reduction vs vehicle control: 24.76 fold or %
  Traf1 fold increase or percent reduction vs vehicle control: 1.06 fold or %
  Trp53bp2 fold increase or percent reduction vs vehicle control: 5.61 fold or %
  Trp53 fold increase or percent reduction vs vehicle control: 18.16 fold or %
75 mg/kg BIDx1, 48 h
  Apex1 fold increase or percent reduction vs vehicle control: 21.30 fold or %
  Atm fold increase or percent reduction vs vehicle control: 18.31 fold or %
  Atr fold increase or percent reduction vs vehicle control: 14.07 fold or %
  Bag1 fold increase or percent reduction vs vehicle control: 42.29 fold or %
  Bax fold increase or percent reduction vs vehicle control: 23.39 fold or %
  Bbc3 fold increase or percent reduction vs vehicle control: 1.32 fold or %
  Bid fold increase or percent reduction vs vehicle control: 1.21 fold or %
  Birc5 fold increase or percent reduction vs vehicle control: 50.48 fold or %
  Brca1 fold increase or percent reduction vs vehicle control: 31.46 fold or %
  Brca2 fold increase or percent reduction vs vehicle control: 25.33 fold or %
  Btg2 fold increase or percent reduction vs vehicle control: 11.23 fold or %
  Casp2 fold increase or percent reduction vs vehicle control: 9.89 fold or %
  Ccnb1 fold increase or percent reduction vs vehicle control: 59.73 fold or %
  Ccne1 fold increase or percent reduction vs vehicle control: 5.97 fold or %
  Ccng1 fold increase or percent reduction vs vehicle control: 9.36 fold or %
  Ccnh fold increase or percent reduction vs vehicle control: 12.98 fold or %
  Cdc25a fold increase or percent reduction vs vehicle control: 16.12 fold or %
  Cdk1 fold increase or percent reduction vs vehicle control: 55.02 fold or %
  Cdk4 fold increase or percent reduction vs vehicle control: 48.77 fold or %
  Cdkn1a fold increase or percent reduction vs vehicle control: 1.03 fold or %
  Cdkn2a fold increase or percent reduction vs vehicle control: 23.77 fold or %
  Chek1 fold increase or percent reduction vs vehicle control: 37.45 fold or %
  Cradd fold increase or percent reduction vs vehicle control: 13.67 fold or %
  Cul9 fold increase or percent reduction vs vehicle control: 2.20 fold or %
  Dapk1 fold increase or percent reduction vs vehicle control: 1.46 fold or %
